What all share (test): residual activity, pNA release at […] nm
Common to all, as to assay type: biochemical
What all share (conditions): read-out: IC50 against E-64

Assay [1] has as its target Ervatamin-C (Erv-C) (Tabernaemontana divaricata, UniProt A8DS38).
The target of assay [2] is Ervatamin-C (Erv-C) (Tabernaemontana divaricata, UniProt A8DS38, A200Y/S165T).
Assay [3] addresses Ervatamin-C (Erv-C) (Tabernaemontana divaricata, UniProt A8DS38, A200Y).

Experimental findings from publication PMC3643963, “Enhancement of Proteolytic Activity of a Thermostable Papain-Like Protease by Structure-Based Rational Design” (PLoS ONE, 2013) are described below.

A word on the IC50: it is the concentration needed to halve the response being measured.

Sequence of Ervatamin-C (Erv-C) (Tabernaemontana divaricata, UniProt A8DS38) (A8DS38 134-341): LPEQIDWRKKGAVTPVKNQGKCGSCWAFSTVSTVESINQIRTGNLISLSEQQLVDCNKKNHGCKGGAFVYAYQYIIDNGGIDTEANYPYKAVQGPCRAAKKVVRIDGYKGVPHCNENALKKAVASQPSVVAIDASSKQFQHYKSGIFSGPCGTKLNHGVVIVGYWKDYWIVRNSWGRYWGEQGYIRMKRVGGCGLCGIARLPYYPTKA
Sequence of Ervatamin-C (Erv-C) (Tabernaemontana divaricata, UniProt A8DS38, A200Y) (A8DS38 134-341 A200Y): as the sequence (A8DS38 134-341) above, with A67Y counted along it
Sequence of Ervatamin-C (Erv-C) (Tabernaemontana divaricata, UniProt A8DS38, A200Y/S165T) (A8DS38 134-341 S165T/A200Y): as the sequence (A8DS38 134-341) above, with S32T, A67Y counted along it

As to `CC(C)C[C@H](NC(=O)[C@H]1O[C@@H]1C(=O)O)C(=O)NCCCCN=C(N)N` [E-64], the results for the IC50 on Ervatamin-C (Erv-C) [1], on Ervatamin-C (Erv-C) [2] and on Ervatamin-C (Erv-C) [3] were 0.349 µM, 0.171 µM and 0.251 µM, respectively.
